The values that follow come from US4190725A, “5,6-Diaryl-1,2,4-triazines” (Eli Lilly and Company, priority 1978, dated 1980).

The first assay deals with Erythemic response. The assay can be described thus: Erythemic response inhibition, UV-exposed guinea pig skin (modified method of Winder), topical. Type of assay: in vivo, Albino guinea pigs. Particulars: dose 100 mcg./12 cm.^2, in 0.1 cc. ethanol, groups of four. As for the experimental part: A modification of the method of Winder was used to measure the anti-inflammatory activites of the compounds of the present invention; see C. V. Winder, et al., Arch. Int. Pharmacodyn., 116, 261 (1958). Albino guinea pigs of either sex, weighing 225-300 grams, were shaved on the back and chemically depilated (Nair® Lotion Hair Remover, Carter Products, N.Y., N.Y.) 18-20 hours before exposure to ultraviolet light. The animals, in groups of four and bearing identifying ear tags, were treated by applying to an area of skin of about 12 cm.^2 a solution of test compound dissolved in 0.1 cc. of ethanol. The control treatment consisted of administering only the drug vehicle, ethanol, to a group of four animals. Groups of four animals each were given different treatment levels of test compound to obtain dose responses. Random order and blind administration of the test compounds were employed; drug identification was not made until after all animals were graded. Immediately prior to drug application, the animals were exposed in groups of four to a high-intensity ultraviolet light for a measured period of time (usually 4-7 seconds). The ultraviolet light source, a Hanovia Lamp (Kroymayer-Model 10), was placed in contact with the skin of the animal's back. A gummed notebook paper reinforcement was affixed to the lamp lens to provide an unexposed area of contrast for grading the erythema. Beginning one hour after exposure and thereafter at half-hour intervals for another 11/2 hours, the degree of resulting erythema was graded by an arbiturary scoring system based upon the degree of contrast and redness formed. Anti-inflammatory agents delay the development of the erythema and usually have their greatest effect at the initial grading periods. The scores were, therefore, weighted by factors of 4, 3, 2, and 1 at the 1.0, 1.5, 2.0, and 2.5 hour scoring times, respectively. The erythema was graded as follows: […]
______________________________________
Score Appearance of Exposed Area
0 No redness and no contrast
1 Slight redness with a faint
2 Slight to moderate redness
with a distinct outline
3 Marked redness with a distinct
Total scores from each treatment group of four guinea pigs were compared to the control treatment, and the percent inhibition was calculated as follows: [formula]
A dose-response graph was obtained by plotting dose versus percent inhibition, the points representing the average of each treatment group of four guinea pigs. The dose (ED50) in micrograms per 12 cm.^2 (mcg./12 cm.^2) which produced a 50% inhibition of the erythemic response for the particular compound tested was obtained in several instances by extrapolation. Table I below summarizes the results obtained from testing representative compounds of the invention by the foregoing method. The plotted or calculated ED50 for the particular compound tested, where available, is given in the last column of Table I.
In the case of `COc1ccc(-c2nnc(SCc3ccccc3)nc2-c2ccc(OC)cc2)cc1` [CH2 C6 H5 S 1 OCH3 OCH3, 3-benzylthio-5,6-bis(4-methoxyphenyl)-1,2,4-triazine], the “Inhibition % (% Inhibition compared with control)” value worked out at 49%.

With `COc1ccc(-c2nnc(SC(C)C)nc2-c2ccc(OC)cc2)cc1` [CH(CH3)2 S 1 OCH3 OCH3, 3-isopropylthio-5,6-bis(4-methoxyphenyl)-1,2,4-triazine], the “Inhibition % (% Inhibition compared with control)” value was determined as 35%.

Staying with this assay, now noted: in 0.1 cc. ethanol, 12 cm.^2 skin, groups of four, plotted or calculated, in several instances by extrapolation.
`CCc1nnc(-c2ccc(OC)cc2)c(-c2ccc(OC)cc2)n1` [C2 H5 -- 0 OCH3 OCH3, 3-ethyl-5,6-bis(4-methoxyphenyl)-1,2,4-triazine]: the “ED50 (dose which produced a 50% inhibition of the erythemic response)” value is on record as 4 mcg./12 cm.^2.

With `CCOc1nnc(-c2ccc(OC)cc2)c(-c2ccc(OC)cc2)n1` [C2 H5 O 1 OCH3 OCH3, 3-ethoxy-5,6-bis(4-methoxyphenyl)-1,2,4-triazine], the “ED50 (dose which produced a 50% inhibition of the erythemic response)” value was 3.1 mcg./12 cm.^2.

In the case of `CCSc1nnc(-c2ccc(OC)cc2)c(-c2ccc(OC)cc2)n1` [C2 H5 S 1 OCH3 OCH3, 3-ethylthio-5,6-bis(4-methoxyphenyl)-1,2,4-triazine], the “ED50 (dose which produced a 50% inhibition of the erythemic response)” value is on record as 21.3 mcg./12 cm.^2.

For `CCCCCCSc1nnc(-c2ccc(OC)cc2)c(-c2ccc(OC)cc2)n1` [C6 H13 S 1 OCH3 OCH3, 3-hexylthio-5,6-bis(4-methoxyphenyl)-1,2,4-triazine], the “ED50 (dose which produced a 50% inhibition of the erythemic response)” value is given as 37.4 mcg./12 cm.^2.

As for `COc1ccc(-c2nnc(C)nc2-c2ccc(OC)cc2)cc1` [CH3 -- 0 OCH3 OCH3, 5,6-bis(4-methoxyphenyl)-3-methyl-1,2,4-triazine], the “ED50 (dose which produced a 50% inhibition of the erythemic response)” value is given as 2.4 mcg./12 cm.^2.

On to `COc1ccc(-c2nnc(OC)nc2-c2ccc(OC)cc2)cc1` [CH3 O 1 OCH3 OCH3, 3-methoxy-5,6-bis(4-methoxyphenyl)-1,2,4-triazine], for which the “ED50 (dose which produced a 50% inhibition of the erythemic response)” value is recorded as 7 mcg./12 cm.^2.

Consider `COc1ccc(-c2nnc(SC)nc2-c2ccc(OC)cc2)cc1` [CH3 S 1 OCH3 OCH3, 5,6-bis(4-methoxyphenyl)-3-methylthio-1,2,4-triazine], for which the “ED50 (dose which produced a 50% inhibition of the erythemic response)” value is given as 9 mcg./12 cm.^2.
